Assay type in all cases: cell-based
The target in one test is T1, αWT α-βWT GlyR (Homo sapiens, UniProt P23415+P48167, A277S/A316I/A325S/DEL290-297/G282P/I253M/I257A/I264V/I268L/I311L/I313V/INS301ECTTLAAE/L252M/L327V/M248V/M255V/M274P/M315L/P278A/Q254G/R299L/S259T/S324A/T286F/T287S/V317A/V322G/Y250F).
T1 construct: The α R218-Q219 and β R242-Q243 are also the joining sites for chimeras constructed between the ECD and TMD; expressed in transfected cells; host or cells: HEK293 (ATCC)
The protocol:
(§1) The human GlyR α1 and β subunit cDNAs were subcloned into the pcDNA3.1zeo+ (Invitrogen) or pGEMHE [44] plasmid vectors for expression in HEK293 cells or Xenopus oocytes, respectively. Site-directed mutagenesis and chimera construction were performed using the QuickChange (Stratagene, La Jolla, CA, USA) mutagenesis and multiple-template-based sequential PCR protocols, respectively.
(§2) The effects of the hyperekplexia-mimicking mutations, K24′A, V25′A and Y27′A, were examined on GlyRs expressed in HEK293 cells (ATCC). Details of the HEK293 cell culture, GlyR expression and electrophysiological recording of the HEK293 cells are described elsewhere. Briefly, HEK293 cells were maintained in DMEM supplemented with 10% fetal bovine serum. Cells were transfected using a calcium phosphate precipitation protocol. When co-transfecting the α1 together with the β or any other chimera subunits, their respective cDNAs were combined in a ratio of 1∶10. In addition, the pEGFP-N1 (Clontech) was co-transfected to facilitate identifying the transfected cells. […] Cells were treated with external Ringer's solution and internal CsCl solution [30]. Cells were voltage-clamped at −40 mV. When the heteromeric GlyRs were expressed, the picrotoxin sensitivity was tested to confirm that the majority of receptors are heteromers, [30].
(§3) Results are expressed as mean±standard error of the mean of three or more independent experiments. […] Statistical significance was determined using the Student's t-test.

Another test has as its target T2, αWT α-βY27′A GlyR (Homo sapiens, UniProt P23415+P48167, A277S/G282P/I253M/I257A/I264V/I268L/L252M/M248V/M255V/M274P/P278A/Q254G/S259T/Y250F/Y325A).
T2 construct: The α R218-Q219 and β R242-Q243 are also the joining sites for chimeras constructed between the ECD and TMD; expressed in transfected cells; host or cells: HEK293 cells (ATCC), pcDNA3.1zeo+
The protocol: as §1, §2, §3

A further test addresses T3, αWT αB-βV25′A GlyR (Homo sapiens, UniProt P23415+P48167, A165S/A240V/A277S/A80Q/E245R/G282P/H243T/I181K/I238V/I253M/I257A/I264V/I268L/K171T/L252M/M168L/M248V/M255V/M274P/N172L/P278A/Q254G/R241I/S259T/T179R/V177T/V323A/Y250F).
T3 construct: expressed in transfected cells; host or cells: HEK293 (ATCC)
How it is done: as §1, §2, §3

Another test concerns the target T4, αWT β-αWT GlyR (Homo sapiens, UniProt P23415+P48167, A275I/A296P/F268Y/G272Q/L286I/M270L/M271I/P292M/P300G/S295A/T277S/V266M/V273M/V282I).
T4 construct: The α R218-Q219 and β R242-Q243 are also the joining sites for chimeras constructed between the ECD and TMD; expressed in transfected cells; host or cells: HEK293 (ATCC)
T4 sequence (P23415 29-449 isoform P23415-2): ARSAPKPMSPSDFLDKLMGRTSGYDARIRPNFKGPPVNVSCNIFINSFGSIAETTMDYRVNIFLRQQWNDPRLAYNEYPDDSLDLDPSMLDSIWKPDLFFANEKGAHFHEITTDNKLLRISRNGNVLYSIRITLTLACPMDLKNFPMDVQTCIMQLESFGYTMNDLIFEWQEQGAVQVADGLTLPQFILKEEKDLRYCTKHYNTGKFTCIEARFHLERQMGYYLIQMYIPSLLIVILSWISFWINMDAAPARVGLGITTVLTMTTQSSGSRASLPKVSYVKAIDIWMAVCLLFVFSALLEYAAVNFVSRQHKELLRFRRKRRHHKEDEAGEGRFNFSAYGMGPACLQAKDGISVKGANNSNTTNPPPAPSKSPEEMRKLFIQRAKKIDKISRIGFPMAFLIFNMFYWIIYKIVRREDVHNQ
T4 sequence (P48167+P23415 with tags, fused parts or gaps P48167:V266M/P48167:F268Y/P48167:M270L/P48167:M271I/P48167:G272Q/P48167:V273M/P48167:A275I/P48167:T277S/P48167:V282I/P48167:L286I/P48167:P292M/P48167:S295A/P48167:A296P/P48167:P300G): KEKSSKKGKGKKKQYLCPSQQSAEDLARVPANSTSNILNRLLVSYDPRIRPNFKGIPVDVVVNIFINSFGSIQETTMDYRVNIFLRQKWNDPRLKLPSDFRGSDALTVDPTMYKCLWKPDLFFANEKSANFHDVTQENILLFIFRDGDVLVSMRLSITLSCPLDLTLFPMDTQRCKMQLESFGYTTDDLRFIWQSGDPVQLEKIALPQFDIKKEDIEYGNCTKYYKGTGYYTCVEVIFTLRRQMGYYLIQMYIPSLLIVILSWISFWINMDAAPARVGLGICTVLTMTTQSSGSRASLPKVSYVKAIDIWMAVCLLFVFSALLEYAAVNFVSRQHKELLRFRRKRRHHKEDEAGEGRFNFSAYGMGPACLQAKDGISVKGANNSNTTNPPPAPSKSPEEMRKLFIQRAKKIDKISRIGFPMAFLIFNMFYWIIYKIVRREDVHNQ
The protocol:
as §1
For the β-α chimeras used for determining the effect of hyperekplexia-mimicking mutations on α1 β GlyR channel function, the Thr at the M2 6′ position was replaced by a Cys. […] Through such a modification, picrotoxin resistance was used to distinguish the heteromeric α1 β-α GlyR from the homomeric α1 GlyR when the α1 and β-α subunits were co-expressed.
as §2, §3

The mark [1] stands for this setting: αWT α-βWT, HEK293, with glycine at EC50 of α1 homomer.
Setting [2] is: αWT α-βY27′A, HEK293, with glycine at EC50 of α1 homomer.
Where [3] appears, read: αWT αB-βV25′A, HEK293, with glycine at EC50 of α1 homomer.
The mark [4] stands for this setting: αWT β-αWT, HEK293, with glycine at EC50 of α1 homomer.

T1 sequence (P23415+P48167 fused with the stated changes, one chain of several): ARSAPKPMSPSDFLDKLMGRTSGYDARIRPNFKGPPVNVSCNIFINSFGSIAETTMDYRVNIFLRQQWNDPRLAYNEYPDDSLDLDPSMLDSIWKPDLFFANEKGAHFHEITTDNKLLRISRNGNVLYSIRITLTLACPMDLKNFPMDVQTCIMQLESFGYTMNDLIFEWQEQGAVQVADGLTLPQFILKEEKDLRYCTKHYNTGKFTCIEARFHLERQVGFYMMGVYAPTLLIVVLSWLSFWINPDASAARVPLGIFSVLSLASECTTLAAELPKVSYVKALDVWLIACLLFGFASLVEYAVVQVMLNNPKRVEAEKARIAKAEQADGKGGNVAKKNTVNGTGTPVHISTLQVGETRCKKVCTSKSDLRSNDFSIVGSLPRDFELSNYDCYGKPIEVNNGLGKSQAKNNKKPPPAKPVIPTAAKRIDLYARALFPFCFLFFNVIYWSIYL
T3 sequence (P23415+P48167 fused with the stated changes, one chain of several): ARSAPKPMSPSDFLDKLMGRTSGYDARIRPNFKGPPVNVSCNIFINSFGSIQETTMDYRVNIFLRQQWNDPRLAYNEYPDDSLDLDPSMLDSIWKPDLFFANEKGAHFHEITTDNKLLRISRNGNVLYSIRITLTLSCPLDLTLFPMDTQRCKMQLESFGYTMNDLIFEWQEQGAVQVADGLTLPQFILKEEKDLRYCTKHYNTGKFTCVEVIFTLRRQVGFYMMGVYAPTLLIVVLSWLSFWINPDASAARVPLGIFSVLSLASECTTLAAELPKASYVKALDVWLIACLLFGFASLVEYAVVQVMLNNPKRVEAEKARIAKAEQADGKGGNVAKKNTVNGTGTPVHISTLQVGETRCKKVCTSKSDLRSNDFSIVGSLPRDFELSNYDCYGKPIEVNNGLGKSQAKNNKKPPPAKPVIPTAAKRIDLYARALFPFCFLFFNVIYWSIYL
T2 sequence (P23415+P48167 fused with the stated changes, one chain of several): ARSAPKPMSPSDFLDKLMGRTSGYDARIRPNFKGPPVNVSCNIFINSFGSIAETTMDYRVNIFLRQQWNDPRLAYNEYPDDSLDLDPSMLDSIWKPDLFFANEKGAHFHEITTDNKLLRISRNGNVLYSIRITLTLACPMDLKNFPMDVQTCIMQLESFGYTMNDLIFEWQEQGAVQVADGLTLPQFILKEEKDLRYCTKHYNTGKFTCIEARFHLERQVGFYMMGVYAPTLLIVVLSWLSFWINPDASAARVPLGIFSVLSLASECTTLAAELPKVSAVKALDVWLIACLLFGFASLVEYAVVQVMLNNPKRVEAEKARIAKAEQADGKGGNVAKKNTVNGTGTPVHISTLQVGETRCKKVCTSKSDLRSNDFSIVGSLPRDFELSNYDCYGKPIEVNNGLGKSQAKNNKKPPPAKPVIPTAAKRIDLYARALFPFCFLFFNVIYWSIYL

For the compound `NCC(=O)O` [glycine], the Imax on αWT α-βWT GlyR is reported as 4.3±0.7 nA; on αWT α-βY27′A GlyR it was 6.9±3.1 nA; at αWT αB-βV25′A GlyR it was 9.8±4.9 nA; on αWT β-αWT GlyR it was 8.0±2.3 nA. Further, the nH at αWT α-βWT GlyR is reported as 1.3±0.3; at αWT α-βY27′A GlyR, 1.3±0.3; on αWT αB-βV25′A GlyR, 2.2±0.3; on αWT β-αWT GlyR it was 2.4±0.4.

picrotoxin [PTX]: the “10uM PTX inhibition (%)” value at αWT α-βWT GlyR (setting [1]) came out at 3.8±2.2%; at αWT α-βY27′A GlyR (setting [2]), 4.9±0.3%; at αWT αB-βV25′A GlyR (setting [3]) it was 8.9±2.4%; at αWT β-αWT GlyR (setting [4]), 8.5±1.9%. The “100uM PTX inhibition (%)” value at αWT α-βWT GlyR (setting [1]) was determined as 25±2%; on αWT α-βY27′A GlyR (setting [2]), 39±5%; at αWT αB-βV25′A GlyR (setting [3]), 43±3%; on αWT β-αWT GlyR (setting [4]), 26±2%.

These data come from publication PMC3222680 (PLoS ONE, 2011).
